# From US20100330029A1, “Cancer Treatments with Radiation and Immunocytokines” (Merck Patent GmbH, priority 2008, published 2010)
# How the values were obtained:
# [1] = test system: non-small cell lung cancer; assay: dose-escalation trial in non-small cell lung cancer; format: in vivo; settings: human NSCLC; local irradiation 5×4 Gy then EMD521873 at a dose level below the MTD
# Method: An dose-escalation trial is performed using EMD521873 in combination with local irradiation (20 Gy) of primary tumors or metastases in subjects with non-small cell lung cancer stage IIIb with malignant pleural effusion or stage IV with disease control (partial response or stable disease) after application of 4 cycles of platinum-based, first-line chemotherapy.
# Subjects receive local irradiation (5×4 Gy) given over 5 consecutive days, prior to the first treatment cycle with EMD521873. After a 2-day treatment-free interval, intravenous infusions of EMD521873 are given on 3 consecutive days in 3-week cycles.
# In each cycle, patients receive EMD521873 given as a once-daily, 1-h intravenous infusion on 3 consecutive days (days 1-3) followed by an 18-day treatment-free break (days 4-21).
# Dose escalation of EMD521873 is performed in cohorts of 3 subjects at dose levels of 0.15, 0.30, and 0.45 mg/kg. Escalation to the next dose level is based on the number of dose limiting toxicities (DLTs) observed, if any, during the DLT evaluation period (i.e. the 21 days following the day of first infusion of […] in the first cycle). DLTs are defined as any grade ≧3 toxicity assessed as related to trial treatment (EMD521873 and/or radiation). If no DLT occurs in the 3 subjects, the next 3 subjects are recruited at the next highest dose level. […]
# [2] = test system: T cell and T cell activation-associated genes in the tumor; assay: qPCR gene profiling of tumors, CT26/KSA model; format: in vivo, mice
# Method: (§1) Gene profiling of tumors was analyzed using excised tumor tissues placed in RNAlater® RNA stabilizing reagent upon harvest. Total RNA was prepared with an RNeasy® kit (Qiagen) and cDNA was prepared with the Superscript® III kit for qPCR (Life Technologies, Inc.). qPCR reactions were performed on an ABI7500 instrument in a standardized fashion and relative changes in gene expression were analyzed using the ddCt method (efficiency factor 95%). Housekeeping genes used for comparison included ACTB, B2M and HPRT1.
# [3] = test system: immune response markers in the tumor; assay: immune marker gene expression profiles in B16 tumors; format: in vivo, mice; settings: 10 Gy d0 followed by EMD521873, compared to either therapy alone
# Method: as §1
# In addition, there was a moderate, but significant increase in certain immune response markers in the tumor as measured by immune marker gene expression profiles with CD25, TNFA, TYROBP, ICOS and CD45 being modulated >4-fold compared to either therapy alone.
# [4] = test system: Lewis lung carcinoma (LLC); assay: tumor growth assay, Lewis lung carcinoma model; format: in vivo, mice; settings: for Complete Response Rate: Sel 5 mg/kg d7, 8, 9, Ch/Rx = cisplatin 4 mg/kg d0 plus 3.6 Gy/d d0-4; for tumor growth / complete regressions: Experiments LLC-1, LLC-2, LLC-4
# Method: LL/2 (LLC) cells, a murine Lewis lung carcinoma cell line, were maintained in DMEM, supplemented with 10% heat-inactivated fetal bovine serum, L-glutamine, penicillin/streptomycin (Life Technologies, Inc.) at 37° C. and 7% CO2. LLC cells were implanted in female C57BL/6 mice.
# For the tumor growth assay, cells growing exponentially in culture were injected as a single cell suspension in 100 μl of PBS intramuscularly into the upper legs of the mice. In experiments using a dual tumor model, cells were also implanted in the flanks of the mice. […] In Experiment LLC-7, tumors were implanted in the flank until established. Mice were treated on days 0 to 9, then, on day 12, tumors were excised using survival surgery. Thereafter, animal survival was monitored. In Experiment LLC-14, tumors were implanted subcutaneously in the flank until established. Mice were treated on days 0 to 6 and day 17, and tumor size was measured twice weekly for the duration of the study.
# Tumors were measured with calipers in three dimensions for the duration of the experiment. Tumor volumes were calculated using the equation:
# Volume=4/3π(L/2×W/2×H/2) • where L=length, W=width and H=height of the tumor
# For local irradiation, mice were anesthetized by intraperitoneal injection of a solution of 2% tribromoethanol/3% xylazine. The amount injected was 0.02 ml/gram of the recipient's weight. Mice were restrained so that only their tumor-bearing leg was exposed to radiation, while the reminder of the mouse was shielded. Tumors were irradiated with ^137Cs gamma radiation at a dose rate of 1 Gy/min using a Gammacell® 40 Exactor (Nordion, Ottawa, ON).
# Data from the subcutaneous tumor growth assay are presented in graphic form depicting average and standard deviations (sd) of tumor volumes or weights during and after dosing. Animal weight changes were determined by subtracting the animal weight at each time point from the initial body weight, on day 0, then dividing by the initial body weight and multiplying by 100. Therefore a value of 0 indicates no weight change.
# Student's 2-tailed t test or Mann-Whitney Rank Sum test, as appropriate, was performed on the individual tumor volumes or animal weights, to determine significant differences between treatment groups.
# [5] = Experiment LLC-6, chemoradiation followed by EMD521873
# [6] = LLC-3, EMD521873 with cisplatin plus 1.2 Gy/d
# [7] = triple combination of chemoradiation plus EMD521873
substance,measurement,setting,value
dI-NHS76γ2(h)(FN>AQ)-ala-IL2(D20T) [EMD521873],rates of tumor response (CT or MRI scan),[1],improved rates of tumor response
same,levels of FoxP3 gene expression in the tumor,[2]; radiation followed by EMD521873 (combination),did not increase
same,"CD8, Granzyme B, and IFNγ gene expression increase in the tumor","[2]; radiation followed by EMD521873, compared to either EMD521873 or radiation alone",3.5-4.6 fold
same,"CD25, TNFA, TYROBP, ICOS and CD45 gene expression modulated in the tumor",[3],> 4 fold
same,Complete Response Rate,[4]; Exp LLC-3,0/6
same,Complete Response Rate,[4]; Exp LLC-4,1/8
same,Complete Response Rate,[4]; Exp LLC-5,0/6
same,growth control of the irradiated lesion (leg tumor),[4]; [5],good growth control
same,growth control of the non-irradiated flank tumor,[4]; [5],did not surpass that of EMD521873 alone
same,tumor growth,"[4]; EMD521873 5 mg/kg d7, 8, 9 with radiation 3.6 Gy/d d0-4",reduced tumor growth compared to any of the single treatments and to the other double treatments
same,complete regressions,[4]; EMD521873 with radiation,3/6
same,tumor growth,[4]; cisplatin 4 mg/kg d0 added to radiation/EMD521873,further growth control
same,complete regressions,[4]; cisplatin added to radiation/EMD521873 (triple combination),5/6
same,complete responses,"[4]; Experiments LLC-1, LLC-2, 3.6 Gy days 0-4 followed by EMD521873 5 mg/kg i.v. days 7, 8, 9",3/6
same,complete responses,"[4]; Experiments LLC-1, LLC-2, EMD521873 monotherapy 5 mg/kg i.v. days 7, 8, 9",No complete responses
same,tumor growth control,"[4]; LLC-3, EMD521873 5 mg/kg d7, 8, 9 with cisplatin plus 0.4 Gy/d, vs EMD521873 alone or EMD521873 plus cisplatin",did not improve tumor growth control
same,complete responses,[4]; [6],no complete responses
same,tumor growth control,[4]; [6],improved growth control compared to either therapy alone
same,complete responses,"[4]; LLC-3, cisplatin plus 3.6 Gy/d in combination with EMD521873",5/6
same,T/C,"[4]; LLC-3, day 19, cisplatin plus 3.6 Gy/d in combination with EMD521873",0.02
same,T/C,"[4]; LLC-3, day 19, single-arm groups: cisplatin plus 3.6 Gy/d without EMD521873, or EMD521873 alone",0.69
same,complete responses,"[4]; LLC-3, single-arm groups: cisplatin plus 3.6 Gy/d without EMD521873, or EMD521873 alone",0/6
same,animals with complete response,"[4]; LLC-8, LLC-9, combination with chemoradiation",4/6
same,T/C,"[4]; LLC-8, LLC-9, day 21, combination with chemoradiation (cisplatin 4 mg/kg d0 plus 3.6 Gy/d d0-4)",0.03
same,response rate (CRs),"[4]; LLC-10, 1 mg/kg EMD521873 d7, 8, 9 plus chemoradiation",2/8
same,response rate (CRs),"[4]; LLC-10, 5 mg/kg EMD521873 d7, 8, 9 plus chemoradiation",3/8
same,response rate (CRs),"[4]; LLC-10, 15 mg/kg EMD521873 d7, 8, 9 plus chemoradiation",3/8
same,tumor volume (FIG. 9),"[4]; LLC-10, 1, 5 and 15 mg/kg EMD521873 in combination with chemoradiation vs EMD521873 alone, chemoradiation alone, vehicle",similarly reduced tumor volume
same,tumor growth control,"[4]; LLC-11, EMD521873 5 mg/kg d0, 1, 2 followed by radiation for 1 or 2 weeks, vs EMD521873 or radiation alone",an increase in tumor growth control
same,tumor regressions and complete responses,"[4]; LLC-11, EMD521873 followed by radiation for 1 or 2 weeks",neither tumor regressions nor complete responses were achieved
same,tumor regressions,"[4]; LLC-12, EMD521873 5 mg/kg days 7, 8, 9 after a single week of radiation (3.6 Gy/d; d0, 2, 4)",a majority of tumor regressions
same,complete responses,"[4]; LLC-12, EMD521873 after a single week of radiation",no complete responses
same,tumor regressions and tumor growth control,"[4]; LLC-12, EMD521873 during the 2nd week of a 2 week or 3 week course of radiation, vs EMD521873 or radiation alone",tumor regressions and improved tumor growth control
same,complete responses,"[4]; LLC-13, cisplatin plus radiation for 1 week followed by EMD521873",4/10
same,complete responses,"[4]; LLC-13, cisplatin plus radiation for three weeks prior to EMD521873",0/10
same,tumor growth control,"[4]; LLC-13, cisplatin plus radiation for two weeks or three weeks prior to EMD521873",neither gave enhancement of tumor growth control compared to chemoradiation alone
same,complete responses,"[4]; LLC-13, cisplatin plus radiation for two weeks prior to EMD521873",2/10
same,tumor growth control,"[4]; LLC-13, cisplatin plus radiation in the first week followed by EMD521873",enhancement of tumor growth control compared to either therapy alone
same,tumor growth (FIG. 6),"[4]; LLC-14, chemoradiation (cisplatin, 3.6 Gy/d d0-4) combined with immunocytokine on d6 and d17, EMD521873 5 mg/kg i.v., NHS-muIL12 10 μg/animal s.c.",enhanced the efficacy of EMD521873
same,tumor growth (FIG. 7),"[4]; immunocytokine administered with chemoradiation, compared to no treatment, chemoradiation alone, immunocytokine alone",a decrease in tumor growth
same,complete regressions (FIG. 8),[4]; treatment alone,no complete regressions occurred
same,tumor growth (FIG. 8),[4]; treatment alone,no decrease in tumor growth was seen
same,complete regressions (FIG. 8),[4]; [7],9/9
same,tumor volume (FIG. 8),[4]; [7],a decrease in tumor volume
